# Results taken from US20130064878A1, “WOUND HEALING COMPOSITIONS AND METHODS” (UNIVERSITY OF NOTRE DAME DU LAC, priority 2011, published 2013).
# Columns and labels:
# [1] = system: skin punch biopsy lesions of female diabetic mice (db/db mice); experiment: Chronic wound model, two 6-mm skin punch biopsy lesions, topical treatment; assay type: in vivo, mouse
# Method: Female diabetic mice (db/db mice, 9-10 weeks old, Jackson Laboratory, Bar Harbour, Me.) (n=10 per group) were prepared for aseptic surgery by clipping the hair on the dorsal thorax and scrubbing the skin with betadine followed by alcohol. […] Each wound was covered with an occlusive dressing following biopsy. The mice recovered on a cage with clean bedding on a heating pad. Mice received buprenorphine subcutaneously (1.5-2.5 mg/kg) at the conclusion of surgery and again 3-5 hours later. Mice were administered 0.5 mL of warm sterile saline intraperitoneally at the conclusion of surgery. […] Wound closure was determined every day for each animal using the initial and final wound diameters, with the percentage wound closure calculated as [(initial−final)/initial]×100.
# On day 12, half of the mice (n=10) were sacrificed and the wounds of each animal excised. The remaining mice continued treatment at the dosages provided above once a day until day 23, when they were sacrificed On the day of sacrifice, the wounds of each mouse were excised, and analyzed by histology, gelatin zymography and Western blot, and in situ gelatin zymography.
# Female diabetic mice (db/db mice; 9-10 weeks old, Jackson Laboratory, Bar Harbour, Me.) (n=10 per group) were prepared for aseptic surgery by clipping the hair on the dorsal thorax and scrubbing the skin with betadine followed by alcohol. […] Each wound was covered with an occlusive dressing following biopsy. The mice recovered on a cage with clean bedding on a heating pad. Mice received buprenorphine subcutaneously (1.5-2.5 mg/kg) at the conclusion of surgery and again 3-5 hours later. Mice were administered 0.5 mL of warm sterile saline intraperitoneally at the conclusion of surgery. […] Wound closure was determined every day for each animal using the initial and final wound diameters, with the percentage wound closure calculated as [(initial−final)/initial]×100.
# Female diabetic mice (db/db mice) (n=10 mice per group, n=2 wounds per mouse, 9-10 weeks old, Jackson Laboratory, Bar Harbour, Me.) were prepared for aseptic surgery by clipping the hair on the dorsal thorax and scrubbing the skin with betadine followed by alcohol. […] Each wound was covered with an occlusive dressing following biopsy. The mice recovered on a cage with clean bedding on a heating pad. Mice received buprenorphine subcutaneously (1.5-2.5 mg/kg) at the conclusion of surgery and again 3-5 hours later. Mice were administered 0.5 mL of warm sterile saline intraperitoneally at the conclusion of surgery. […] Wound closure was determined every day for each animal using the initial and final wound diameters, with the percentage wound closure calculated as [(initial−final)/initial]×100.
# [2] = system: wound gelatinolytic activity; experiment: In situ gelatin zymography of wound tissue (Example 3); assay type: in vivo, mouse; details: day 13; 0.25 mg/wound; compared to vehicle
# Method: On day 7, half of the mice (n=10) were sacrificed and the wounds of each animal excised. […] On the day of sacrifice, the wounds of each mouse were excised, and analyzed by histology, gelatin zymography and Western blot, and in situ gelatin zymography. Specifically, one wound from each sacrificed animal was analyzed by in situ gelatin zymography, and one wound from each sacrificed animal was analyzed by gelatin zymography, followed by Western blot.
# FIG. 2(A) is a graph of the wound closure measurements, determined every day of the study as [(initial−final)/initial]×100. […] FIG. 2(C) is a photograph of a representative skin lesion of a mouse treated with saline on day 13. […] Wound gelatinolytic activity is visualized using fluorescein isothiocyanate (FITC)-labeled substrate (right images), and 4′,6-diamidino-2-phenylindole (DAPI)-labeled […] (left images). […] Thus, gelatinolytic activity was suppressed in the gelatinase inhibitor-treated group (FIG. 2 (D)).
# [3] = system: animal models of cancer metastasis, stroke, hemorrhage, spinal cord and brain injury; details: prostate, breast cancer and T-cell lymphoma metastasis, ischemic stroke, subarachnoid hemorrhage, traumatic brain injury, testosterone-induced neurogenesis; cited from earlier work
# [4] = system: wounds of female diabetic db/db mice; experiment: Excisional diabetic wound model, single 8-mm wound, topical treatment; assay type: in vivo, mouse
# Excerpt: (§1) Single excisional wounds 8-mm in diameter were made with a biopsy punch (Miltex, York, Pa., USA) using aseptic technique in the shaved dorsal regions of female diabetic db/db mice and female wild-type mice under isoflurane anesthesia. […] Wounds were photographed and immediately covered with a sterile dressing (3M Tegaderm™ Transparent Dressing, Butler Schein Animal Health, Inc., Dublin, Ohio). Cellulose acetate collars were made in-house from expired films and mounted on the wild-type mice to prevent them from disturbing the wounds on their back. […] On days 1, 3, 7, 10, and 14, digital photographs of wounds were taken while animals were under isoflurane anesthesia. […] The wounds with minimal surrounding healthy tissue were excised and either flash-frozen in liquid nitrogen for protein expression profiling or embedded in optimal cutting temperature (OCT) compound (Tissue-Tek, Torrance, Calif., USA) followed by cryosectioning for histological assessment.
# (§2) Digital images were analyzed for wound areas using the NIH ImageJ version 1.45 software. Photographs of each wound were taken using a digital camera (Olympus SP-800UZ, Center Valley, Pa., USA), which was statically mounted on a tripod at a fixed distance above the mouse wound. A ruler was included in the photographic frame to allow ImageJ calibration. The wound outline was defined from the photographic image and the ImageJ software calculated the wound area. Wound closure was expressed as the change in wound area relative to that from day 0.
# (§3) Wound closures are expressed as mean±SD (n=35 on day 1; n=28 on day 3; n=21 on day 7; n=14 on day 10; n=7 on day 14). Wound closures and levels of MMP-8 and MMP-9 were analyzed using a paired Student t-test; p<0.05 was considered statistically significant.
# (§4) Fresh wound tissue was cut, embedded in OCT compound, and cryosectioned at a thickness of 12-μm in preparation for hematoxylin-eosin (H&E) staining. Morphological assessment of re-epithelialization was performed on a Nikon Eclipse 90i Fluorescent Microscope (Nikon Instruments Inc., Melville, N.Y., USA) (Tkalcevic et al., Toxicol. Pathol. 37 (2), 183-192 (2009)). In situ gelatin zymography was performed as described (Oh et al., J. Neurosci. 19 (19), 8464-8475 (1999)). Briefly, unfixed cryostat sections (12-μm-thick) of wound tissues were incubated in a reaction buffer (50 mM TBS pH 7.6) containing DQ-gelatin conjugate (Molecular Probes, Eugene, Oreg., USA) at 37° C. for 6 h. After fixation in 4% paraformaldehyde in PBS, cells were counterstained with DAPI (Molecular Probes, Eugene, Oreg., USA) and the images were visualized by fluorescence microscopy.
# [5] = system: wounds of female wild-type mice; experiment: Excisional wound model, single 8-mm wound, topical treatment, wild-type mice; assay type: in vivo, mouse
# Excerpt: as §1, §2, §3, §4
# [6] = system: gelatinase activity in wound tissues of diabetic mice; experiment: In-situ gelatin zymography with DQ-gelatin (Example 5); assay type: in vivo, mouse; details: db/db mice; compared to vehicle
# Method: as §4
structure (smiles),measurement,setting,value
Nc1ccc(Oc2ccc(S(=O)(=O)CC3CS3)cc2)cc1 (stereo not shown) [p-amino SB-3CT],difference in wound healing between treated and vehicle groups,"[1]; Example 3, 0.25 mg/wound once per day, 13 days, vehicle saline",Significant differences in wound healing
same,wound closure,"[1]; day 6, 0.25 mg/wound topical once per day, vehicle saline, db/db mice",37.0±9.5%
same,wound gelatinolytic activity (in situ gelatin zymography),[2],suppression of gelatinolytic activity
"O=S(=O)(CC1CS1)c1ccc(Oc2ccccc2)cc1 (stereo not shown) [SB-3CT, 2-(((4-phenoxyphenyl)sulfonyl)methyl)thiirane]",wound closure,"[1]; at 13-14 days, SB-3CT-treated db/db mice (0.25 or 1.25 mg/wound per day)",> 90%
same,wound closure,"[1]; day 6, 0.25 mg/wound per day topical, vehicle DMSO, db/db mice",49.6±14.0%
same,wound closure,"[1]; day 6, 1.25 mg/wound per day topical, vehicle DMSO, db/db mice",50.0±7.4%
same,difference in wound closure between vehicle and treated mice,"[1]; starting on day 2, db/db mice, Example 1",Significant differences (p<0.05)
same,efficacy in animal models,[3],effective
Nc1ccc(Oc2ccc(S(=O)(=O)CC3CS3)cc2)cc1 (stereo not shown) [ND-322],effect on wound healing compared to vehicle,[4]; 0.25 mg/wound/day topical,accelerated wound healing
same,wound closure,"[4]; day 10, 0.25 mg/wound/day topical, n=14, p<0.05 vs vehicle",70±16%
same,re-epithelialization (H&E staining),[4]; day 14,complete re-epithelialization
same,wound closure,"[4]; day 14, 0.25 mg/wound/day topical, n=7, p<0.01 vs vehicle",92±4%
same,difference in wound closure vs vehicle,"[4]; days 1, 3, and 7, p>0.2",not statistically significant
same,effect on wound healing compared to vehicle,"[5]; 0.25 mg/wound/day topical, p>0.25",did not accelerate healing
same,wound closure,"[5]; day 7, 0.25 mg/wound/day topical, n=21",62±19%
same,wound closure,"[5]; day 10, 0.25 mg/wound/day topical, n=14",82±11%
same,re-epithelialization (H&E staining),[5]; day 14,completely re-epithelialized
same,wound closure,"[5]; day 14, 0.25 mg/wound/day topical, n=7",96±4%
same,gelatinase activity in wound tissues (in-situ zymography),[6],significantly decreased
